Test results from article PMC3759264 (The Journal of organic chemistry, 2013).

Assays:
M. tuberculosis H37Rv = M. tuberculosis H37Rv MIC assay; type: cell-based, Mycobacterium tuberculosis; conditions: Mtb H37Rv; for MIC50 –Fe: iron-deficient; for MIC50 +Fe: iron-replete
MbtA [1] = target: T1, MbtA (Mycobacterium tuberculosis, UniProt P71716); type: biochemical; conditions: read-out: Ki^app MbtA; 250 µM salicylic acid, 10 mM ATP, 1 mM PPi, 7 nM MbtA
MbtA [2] = target: T1, MbtA; type: binding

T1 sequence (P71716 whole entry): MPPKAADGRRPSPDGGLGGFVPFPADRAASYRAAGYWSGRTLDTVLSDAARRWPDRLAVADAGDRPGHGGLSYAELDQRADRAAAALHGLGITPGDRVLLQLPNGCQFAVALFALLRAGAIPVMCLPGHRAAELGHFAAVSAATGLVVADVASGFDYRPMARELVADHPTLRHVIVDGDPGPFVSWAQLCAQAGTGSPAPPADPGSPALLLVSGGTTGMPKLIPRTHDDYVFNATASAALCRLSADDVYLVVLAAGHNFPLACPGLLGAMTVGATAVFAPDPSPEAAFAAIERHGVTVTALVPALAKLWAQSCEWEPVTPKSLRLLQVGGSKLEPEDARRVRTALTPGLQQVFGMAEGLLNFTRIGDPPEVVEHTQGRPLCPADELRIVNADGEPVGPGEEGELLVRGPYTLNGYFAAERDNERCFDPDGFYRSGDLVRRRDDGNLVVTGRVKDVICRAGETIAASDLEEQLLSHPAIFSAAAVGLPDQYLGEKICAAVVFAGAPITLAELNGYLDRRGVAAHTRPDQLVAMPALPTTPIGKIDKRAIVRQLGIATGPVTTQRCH

Compound | MIC50 –Fe (M. tuberculosis H37Rv) | MIC50 +Fe (M. tuberculosis H37Rv) | Ki (MbtA [1]) | fold increase in potency (KD, MbtA) relative to chromone 1 (MbtA [2]) | fold loss of potency (KD, MbtA) relative to chromone 1 (MbtA [2]; FP assay)
Nc1ncnc2c1ncn2[C@@H]1O[C@H](CNS(=O)(=O)c2coc3ccccc3c2=O)[C@@H](O)[C@H]1O [Compound 1, 5′-Amino-5′-N-[(chromon-3-yl)sulfonyl]-5′-deoxy-adenosine] | >50 µM | >50 µM |  |  | 
Nc1ncnc2c1ncn2[C@@H]1O[C@H](CNS(=O)(=O)c2c[nH]c3ccccc3c2=O)[C@@H](O)[C@H]1O [Compound 2, 5′-Amino-5′-deoxy-5′-N-[(quinol-4-on-3-yl)sulfonyl]adenosine] | >50 µM | >50 µM | 120 ± 20 nM |  | 
Nc1ncnc2c1ncn2[C@@H]1O[C@H](CNS(=O)(=O)c2noc3ccccc3c2=O)[C@@H](O)[C@H]1O [Compound 3, 5′-Amino-5′-deoxy-5′-N-[(4-oxo-4H-benzo[e][1,2]oxazin-3-yl)sulfonyl]adenosine] | >50 µM | >50 µM |  | ~10 fold | 
Nc1ncnc2c1ncn2[C@@H]1O[C@H](CNS(=O)(=O)c2coc3c(O)cccc3c2=O)[C@@H](O)[C@H]1O [Compound 4, 5′-Amino-5′-deoxy-5′-N-[(8-hydroxychromon-3-yl)sulfonyl]adenosine] | >50 µM | >50 µM |  |  | 80 fold
